The text below walks through data of ChEMBL document CHEMBL1201862, “PubChem BioAssay data set” (2004).

Active and inactive are the calls of the source.

One assay concerns the target Lethal factor (Bacillus anthracis, UniProt P15917). The assay can be described thus: High-throughput multiplex microsphere dose response for inhibitors of toxin protease, specifically Lethal Factor protease, compounds from Powder Set 01. It is filed as functional, Bacillus anthracis str. A2012. Conditions: read-out: EC50_MICROM.
Assay [1] concerns the target Botulinum neurotoxin type A (Clostridium botulinum (strain Hall / ATCC 3502 / NCTC 13319 / Type A), UniProt P0DPI1). Briefly: High-throughput multiplex microsphere dose response for inhibitors of toxin protease, specifically Botulinum neurotoxin light chain A protease, compounds from Powder Set 01. It is filed as functional, Clostridium botulinum A str. ATCC 3502. Conditions: read-out: EC50_MICROM.

The target of assay [2] is Potassium voltage-gated channel subfamily KQT member 2 (Rattus norvegicus, UniProt O88943). Briefly: KCNQ2 potassium channel inhibitors, dose response, cell-based, automated electrophysiology, set II, rat KCNQ2 (AID 588637). The format is functional.
Assay [3] in a line: LMP1-driven NF-kB reporter inhibition, dose response, cell-based, luciferase reporter, luminescence, dry powder, set 2 (AID 624376). It is filed as functional. (In general: In a reporter assay the amount or activity of a reporter protein is the signal.)
The target in assay [4] is Beta-lactamase (Pseudomonas aeruginosa, UniProt Q79MP6).
For the next assay, the target named is Beta Lactamase (Pseudomonas aeruginosa, UniProt Q932Y6).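 Also: confirmatory high-throughput screen measuring VIM-2 metallo-beta-lactamase inhibition by epi-absorbance in dose response.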
The target in assay [5] is Beta-lactamase (Salmonella choleraesuis (strain SC-B67), UniProt Q5J463).
The target in assay [6] is Low molecular weight phosphotyrosine protein phosphatase (Homo sapiens, UniProt P24666). The format is functional. Conditions: read-out: IC50_Mean.
A short description of assay [7]: cytotoxicity toward NIH3T3 fibroblasts, dose response, counter-screen, cell-based, ATP luminescence, mouse fibroblasts (AID 2010).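 Also: cells exposed to compound for about 90 hours before reading.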 It is filed as functional. On the technique in general: Counterscreens check selectivity or assay interference.
The next assay concerns the target Paired box protein Pax-8 (Homo sapiens, UniProt Q06710). The assay can be described thus: inhibitors of PAX8-driven TPO luciferase reporter, dose response, RMG-I cells, cherry-pick (AID 687027).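 Also: luciferase reporter driven by Pax8 target thyroperoxidase promoter measured by SteadyGlo luminescence.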 The format is functional, cell-based.
A short description of assay [8]: inhibitors of intracellular T. cruzi replication, confirmation, NIH3T3 host cells, beta-gal luminescence (AID 2044).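 Also: intracellular parasites grown in NIH/3T3 mouse fibroblasts as host cells; luminescent beta-galactosidase reporter signal from transgenic T. cruzi replicating inside host cells; inhibitors lower the luminescence signal.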 It is filed as functional, cell-based.
Assay [9] can be described thus: CEM21 lymphoblast cell cytotoxicity, dose response, cytotoxicity control for viral fusion inhibitor project, CellTiter-Glo luminescence, cherry-picked (AID 652042).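 Also: potency for signal decrease meaning cytotoxicity.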 It is filed as functional, cell-based.
Assay [10] is described as follows: NIH-3T3 fibroblast cytotoxicity, dose response, cytotoxicity control, cell-based, fluorescence, Alamar Blue, secondary assay (AID 2327).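 Also: NIH-3T3 mouse fibroblasts cultured with fluconazole at 8 µg/mL.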 It is filed as functional. For orientation: The colour change of resazurin is a common sign of viable cells or microbes.
Assay [11] in a line: cells.
The nature of assay [12]: C. albicans growth with fluconazole, confirmation, fluorescence, retest (AID 2467). It is filed as functional, cell-based.
Assay [13] is described as follows: cells. The format is functional, cell-based. The note with it: HEK-CNG.
Assay [14] has as its target T1, Calpain-2 catalytic subunit (Sus scrofa, UniProt P43367).
T1 sequence (P43367 whole entry): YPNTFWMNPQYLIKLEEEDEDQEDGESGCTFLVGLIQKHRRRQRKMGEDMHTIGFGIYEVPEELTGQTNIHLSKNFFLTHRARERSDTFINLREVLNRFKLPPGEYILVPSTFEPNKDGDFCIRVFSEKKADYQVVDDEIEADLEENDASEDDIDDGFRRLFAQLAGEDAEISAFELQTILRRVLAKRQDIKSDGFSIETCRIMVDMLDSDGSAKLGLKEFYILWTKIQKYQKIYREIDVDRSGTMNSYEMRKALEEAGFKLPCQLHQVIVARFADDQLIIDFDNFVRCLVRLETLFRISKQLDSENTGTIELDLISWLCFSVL
Briefly: pig calpain II inhibitor potency, dose response, biochemical, fluorogenic peptide substrate (AID 1420). It is filed as functional.

A short description of assay [15]: inhibitors of HIV Env-driven cell fusion, dose response, cherry-pick (AID 652057). It is filed as functional, cell-based.
The target in the next assay is T2, Galanin receptor type 3 (Homo sapiens, UniProt O60755).
T2 sequence (O60755 whole entry): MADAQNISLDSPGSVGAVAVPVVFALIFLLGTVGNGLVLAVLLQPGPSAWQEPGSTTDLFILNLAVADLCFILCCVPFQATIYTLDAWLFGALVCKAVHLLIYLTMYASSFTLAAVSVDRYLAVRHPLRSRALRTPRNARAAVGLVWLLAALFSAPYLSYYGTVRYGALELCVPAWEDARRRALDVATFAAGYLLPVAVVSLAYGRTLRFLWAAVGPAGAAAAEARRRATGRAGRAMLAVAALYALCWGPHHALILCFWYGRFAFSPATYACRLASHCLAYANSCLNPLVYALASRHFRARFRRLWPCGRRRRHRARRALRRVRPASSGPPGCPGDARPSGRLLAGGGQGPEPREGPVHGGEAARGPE
The assay can be described thus: Fluorescence-based cell-based primary high throughput dose response assay to identify antagonists of the Galanin Receptor 3 (GalR3). The format is functional.

Assay [16] in a line: inhibitors of clade B AD8 Env fusion, dose response, cell-based, cherry-pick (AID 652062).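 Also: luciferase signal from cell-cell fusion driven by HIV-1 clade B AD8 Env; potency is for inhibitors of fusion seen as a drop in luminescence.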 The format is functional.
Assay [17] can be described thus: ZM109 Env clade C HIV-1 fusion inhibitors, dose response, HeLa effector, CEM target cells, luciferase, cherry-pick (AID 652058). It is filed as functional, cell-based.
Assay [18] is described as follows: CRF-BP/CRF-R2 complex antagonists, dose response, cell-based, uHTS hits, 384-well (AID 651639). The format is functional, Homo sapiens. Conditions: read-out: IC50_Mean.

Sequence of Paired box protein Pax-8 (Q06710 whole entry): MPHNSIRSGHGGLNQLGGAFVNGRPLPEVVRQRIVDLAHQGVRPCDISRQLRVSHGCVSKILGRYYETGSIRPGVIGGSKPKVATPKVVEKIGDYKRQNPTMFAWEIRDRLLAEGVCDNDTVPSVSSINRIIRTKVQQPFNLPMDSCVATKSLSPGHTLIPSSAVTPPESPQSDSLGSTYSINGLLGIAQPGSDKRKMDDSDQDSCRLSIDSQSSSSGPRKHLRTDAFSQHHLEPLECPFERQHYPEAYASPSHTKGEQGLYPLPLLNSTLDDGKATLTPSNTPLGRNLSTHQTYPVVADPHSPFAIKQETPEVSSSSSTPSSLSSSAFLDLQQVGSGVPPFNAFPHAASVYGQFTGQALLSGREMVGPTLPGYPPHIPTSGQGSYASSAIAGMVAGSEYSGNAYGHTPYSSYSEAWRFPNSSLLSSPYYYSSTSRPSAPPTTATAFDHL
Sequence of Beta-lactamase (Salmonella choleraesuis (strain SC-B67), UniProt Q5J463) (Q5J463 whole entry): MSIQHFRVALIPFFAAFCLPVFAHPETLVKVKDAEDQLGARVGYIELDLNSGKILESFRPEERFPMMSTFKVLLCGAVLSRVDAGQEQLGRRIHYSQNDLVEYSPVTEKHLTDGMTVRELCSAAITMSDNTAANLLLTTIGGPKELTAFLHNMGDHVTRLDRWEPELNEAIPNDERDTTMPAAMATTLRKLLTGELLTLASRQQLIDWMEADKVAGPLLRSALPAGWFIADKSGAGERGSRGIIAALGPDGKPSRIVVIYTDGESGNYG
Sequence of Lethal factor (P15917 whole entry): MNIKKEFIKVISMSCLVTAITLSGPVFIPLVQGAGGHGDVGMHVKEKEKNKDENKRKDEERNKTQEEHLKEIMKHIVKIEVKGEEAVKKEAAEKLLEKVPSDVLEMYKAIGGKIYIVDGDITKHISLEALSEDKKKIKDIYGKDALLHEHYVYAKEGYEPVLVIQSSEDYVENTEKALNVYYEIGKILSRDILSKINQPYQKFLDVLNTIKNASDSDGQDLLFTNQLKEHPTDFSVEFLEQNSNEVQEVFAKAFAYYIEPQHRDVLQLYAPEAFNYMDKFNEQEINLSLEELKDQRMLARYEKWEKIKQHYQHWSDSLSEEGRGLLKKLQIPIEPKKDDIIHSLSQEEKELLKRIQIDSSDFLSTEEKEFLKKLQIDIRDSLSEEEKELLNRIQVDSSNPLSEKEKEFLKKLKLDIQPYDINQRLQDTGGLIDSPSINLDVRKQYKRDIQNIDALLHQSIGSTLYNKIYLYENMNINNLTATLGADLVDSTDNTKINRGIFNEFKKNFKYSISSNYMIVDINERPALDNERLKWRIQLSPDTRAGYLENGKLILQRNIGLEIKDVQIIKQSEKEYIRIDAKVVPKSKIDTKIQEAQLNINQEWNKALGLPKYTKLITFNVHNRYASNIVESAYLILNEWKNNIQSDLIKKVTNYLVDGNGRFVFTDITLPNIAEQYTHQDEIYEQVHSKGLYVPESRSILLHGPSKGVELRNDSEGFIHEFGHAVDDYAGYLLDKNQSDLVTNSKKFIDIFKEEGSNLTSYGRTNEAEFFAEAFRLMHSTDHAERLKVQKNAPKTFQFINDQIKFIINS
Sequence of Potassium voltage-gated channel subfamily KQT member 2 (O88943 whole entry): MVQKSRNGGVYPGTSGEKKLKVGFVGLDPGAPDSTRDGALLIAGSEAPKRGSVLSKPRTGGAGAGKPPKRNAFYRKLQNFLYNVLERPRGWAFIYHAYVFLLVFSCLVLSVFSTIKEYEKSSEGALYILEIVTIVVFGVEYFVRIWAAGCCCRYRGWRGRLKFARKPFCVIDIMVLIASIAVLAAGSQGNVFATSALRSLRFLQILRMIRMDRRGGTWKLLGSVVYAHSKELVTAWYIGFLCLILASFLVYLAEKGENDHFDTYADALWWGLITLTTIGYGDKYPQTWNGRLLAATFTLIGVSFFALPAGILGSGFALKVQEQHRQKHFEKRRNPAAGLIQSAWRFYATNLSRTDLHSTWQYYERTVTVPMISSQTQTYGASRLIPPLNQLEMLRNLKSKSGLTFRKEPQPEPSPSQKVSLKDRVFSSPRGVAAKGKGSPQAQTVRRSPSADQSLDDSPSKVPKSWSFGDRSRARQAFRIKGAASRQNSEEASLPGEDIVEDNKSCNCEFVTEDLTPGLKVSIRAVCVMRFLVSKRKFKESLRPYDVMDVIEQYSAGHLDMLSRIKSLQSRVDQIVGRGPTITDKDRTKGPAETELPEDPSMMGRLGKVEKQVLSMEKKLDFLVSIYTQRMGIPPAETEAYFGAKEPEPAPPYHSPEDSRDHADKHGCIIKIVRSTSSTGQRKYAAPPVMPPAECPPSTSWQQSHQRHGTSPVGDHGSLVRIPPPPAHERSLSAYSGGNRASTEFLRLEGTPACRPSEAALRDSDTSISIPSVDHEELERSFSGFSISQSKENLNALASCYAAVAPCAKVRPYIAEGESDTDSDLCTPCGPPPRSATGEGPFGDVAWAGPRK
Sequence of Low molecular weight phosphotyrosine protein phosphatase (P24666 whole entry): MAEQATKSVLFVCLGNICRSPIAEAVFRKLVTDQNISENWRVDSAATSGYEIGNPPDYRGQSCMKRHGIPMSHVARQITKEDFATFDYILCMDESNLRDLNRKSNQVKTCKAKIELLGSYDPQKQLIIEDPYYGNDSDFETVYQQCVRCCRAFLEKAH
Sequence of Beta Lactamase (Q932Y6 whole entry): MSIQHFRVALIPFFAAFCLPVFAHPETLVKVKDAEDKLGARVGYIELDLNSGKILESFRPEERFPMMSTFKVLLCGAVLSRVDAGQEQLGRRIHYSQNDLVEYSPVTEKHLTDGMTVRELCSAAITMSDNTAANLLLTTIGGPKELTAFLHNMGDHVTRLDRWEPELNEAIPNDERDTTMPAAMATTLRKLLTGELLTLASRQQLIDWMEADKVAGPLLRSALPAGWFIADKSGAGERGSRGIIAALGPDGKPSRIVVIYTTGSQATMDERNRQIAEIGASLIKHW
Sequence of Beta-lactamase (Pseudomonas aeruginosa, UniProt Q79MP6) (Q79MP6 whole entry): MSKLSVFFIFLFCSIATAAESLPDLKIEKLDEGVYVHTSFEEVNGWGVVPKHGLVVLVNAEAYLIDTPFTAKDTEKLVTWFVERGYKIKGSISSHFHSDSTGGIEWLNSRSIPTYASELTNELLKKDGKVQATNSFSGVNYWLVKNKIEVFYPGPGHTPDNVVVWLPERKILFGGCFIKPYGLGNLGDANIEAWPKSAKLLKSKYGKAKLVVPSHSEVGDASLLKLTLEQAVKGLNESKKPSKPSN
Sequence of Botulinum neurotoxin type A (P0DPI1 2-448 limits assumed): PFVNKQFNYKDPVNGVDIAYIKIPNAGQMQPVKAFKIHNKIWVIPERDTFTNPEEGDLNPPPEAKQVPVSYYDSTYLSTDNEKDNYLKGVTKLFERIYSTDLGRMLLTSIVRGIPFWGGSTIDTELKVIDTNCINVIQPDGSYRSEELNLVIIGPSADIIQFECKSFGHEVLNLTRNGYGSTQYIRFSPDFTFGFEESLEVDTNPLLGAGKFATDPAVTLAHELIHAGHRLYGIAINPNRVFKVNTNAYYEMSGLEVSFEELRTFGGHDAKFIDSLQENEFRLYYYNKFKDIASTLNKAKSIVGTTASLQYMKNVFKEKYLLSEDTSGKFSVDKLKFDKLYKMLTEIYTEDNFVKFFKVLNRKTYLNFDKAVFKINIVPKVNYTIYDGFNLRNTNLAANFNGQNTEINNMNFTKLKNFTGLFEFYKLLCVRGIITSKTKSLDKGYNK

For `COc1ccc(-c2cn3nc(-c4ccccc4)c(-c4ccccc4)nc3n2)cc1`, the EC50 at Lethal factor was 3.3 µM (active); in [1] it was 4 µM (active).

On to `O=C(CN1C(=O)C(c2ccccc2)Oc2cccnc21)NCc1ccccc1F` (configuration not stated), for which the IC50 in assay [2] was 1.81 µM (active).

Consider `O=C(Cc1ccccn1)NCC[C@H]1CC[C@H](NC(=O)Nc2ccc(Cl)cc2)[C@H](CO)O1`, for which the AbsAC35 in assay [3] came to 142.06 µM.

As for `CC(=O)N(c1cccc(C)c1)C1SC(=O)N(c2ccccc2)C1=O` (configuration not stated), the IC50 on Beta-lactamase [4] is 30.8 µM (inactive); on Beta Lactamase, 54.3 µM (inactive); at Beta-lactamase [5], > 59.6 µM (inactive).

Regarding `O=C(O)[C@@H]1[C@H]2C[C@H]3c4[nH]c5ccccc5c4CCN3C[C@@H]2CC[C@@H]1O`, the IC50 in assay [6] was 67.6 µM (inactive).

Regarding `CCCCCCCn1c2c(c(=N)c3c1CCC3)CCCC2`, the EC50 was > 60 µM (not active) in assay [7]; < 0.1 µM (active) in assay [8]; > 160 µM (inactive) in [10]; 0.006 µM (active) in “cells [11]”; 2.79 µM (active) in assay [12]; 27.7 µM (inactive) in “cells [13]”. The half-maximal activity concentration (AC50) on Paired box protein Pax-8 is 0.677 µM (active); in assay [9] it was 6.62 µM (active); in assay [15], 3.53 µM (active); in assay [16], 2.6 µM (active); in assay [17], 3.24 µM (active). Besides, the results for the IC50 (in [14]; on Galanin receptor type 3) were 16.7 µM (not active) and > 1.11 µM (active), respectively.

As for `Cc1sc2nc(CN(Cc3cccs3)C(=O)NC3CCCCC3)nc(O)c2c1C`, in [18], the IC50 is 19.7 µM (active).

A word on the AC50: it is the midpoint of the concentration-response curve, whichever way the signal moves.
